Structures are written as SMILES.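 Each compound was tested at five concentrations against cells in 96-well plates for 48 hours. GI50: concentration for 50% inhibition of growth. TGI denotes the concentration required for complete inhibition of growth.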

One assay deals with UO-31 renal. The assay can be described thus: NCI-60 cell line screen, 48 h.
For the molecule `CCOC(=O)CCc1cc(=O)oc2cc(O)cc(O)c12`, the TGI is more than 100 µM.

As to `COC(=O)c1cc2c3ccccc3[nH]c2c2ncccc12`, the GI50 is 69.4 µM and the TGI is more than 100 µM.

In the case of `CNC(=O)OCc1c(COC(=O)NC)c(-c2ccc(Cl)c(Cl)c2)n2c1SCC2`, the TGI amounted to 25.5 µM.

In the case of `COc1cc(OC)cc(-c2ccc(-c3ccc(C(=N)N)o3)o2)c1`, the GI50 is 2.67 µM and the TGI was determined as 9.16 µM.

For `C[C@]12CC[C@H](O)CC1=CC[C@@H]1[C@@H]2CC[C@]2(C)C(c3cccnc3)=CC[C@@H]12`, the GI50 is more than 100 µM and the TGI is more than 100 µM.

As for `Cc1ccc2c(c1)C(=O)/C(=C/c1ncc([N+](=O)[O-])n1C)O2`, the GI50 was 1.17 µM and the TGI was 5.04 µM.

Regarding `CC1OC(n2cc(F)c(=O)[nH]c2=O)CCC1O` (configuration not stated), the TGI was more than 100 µM.

For `O=C(NCCOCCOCCNc1cccc2c1C(=O)N(C1CCCNC1=O)C2=O)c1cc2c(o1)C(=O)c1ccccc1C2=O` (configuration not stated), the GI50 is 2.03 µM and the TGI worked out at 4.9 µM.

For `CC1CCC2(C(=O)O)CCC3(C)C(=CCC4C5(C)CC(O)C(O)C(C)(CO)C5C(O)CC43C)C2C1C` (configuration not stated), the TGI was more than 100 µM.

Another assay relates to OVCAR-5 ovarian. The assay can be described thus: NCI-60 cell line screen, 48 h.
As to `Cc1nc2cccc([N+](=O)[O-])c2c(NCCCN(C)C)c1C`, the TGI worked out at 60.2 µM.

With `NCC(=O)NS(=O)(=O)OC[C@H]1O[C@@H](n2cnc3c(N)ncnc32)[C@H](O)[C@@H]1O`, the GI50 was 0.75 µM and the TGI worked out at 4.1 µM.

As for `Cc1c(C(=O)N/N=C/c2ccc(Cl)cc2)nnn1-c1ccnc2c(C(F)(F)F)cccc12`, the GI50 is 15.6 µM and the TGI worked out at 36.9 µM.

As for `Cc1nn(CN2CCN(C)CC2)c(=S)n1/N=C/c1cccc2ccccc12`, the GI50 is 19.6 µM and the TGI was found to be 40.4 µM.

As to `N#C/C(=C1C=C/C(=N/O)C(Br)=C/1)c1ccccc1`, the GI50 was 2.6 µM and the TGI was determined as 6.8 µM.

Regarding `CN(C)CCNc1cc(-c2ccccc2)nc2ccccc12`, the GI50 is 5.9 µM and the TGI came out at 36.8 µM.

For `COc1cccc(/C=N/NC(=O)c2ccccc2Nc2ccnc(C(F)(F)F)c2)c1O`, the GI50 is 0.701 µM and the TGI is 98.3 µM.

Regarding `CN1CCN(Cc2ccc(NC(=O)c3cncc(C#Cc4cnc(N)c5ccc(C#N)cc45)c3)cc2C(F)(F)F)CC1`, the GI50 was 0.211 µM and the TGI stood at 0.986 µM.

On to `CCOC(=O)CCc1cc(=O)oc2cc(O)cc(O)c12`, for which the TGI is more than 100 µM.

Take `COC(=O)c1cc2c3ccccc3[nH]c2c2ncccc12`: the GI50 is 32.3 µM and the TGI was more than 100 µM.

Molecule `CNC(=O)OCc1c(COC(=O)NC)c(-c2ccc(Cl)c(Cl)c2)n2c1SCC2` displayed a TGI of 10.8 µM.

On to `COc1cc(OC)cc(-c2ccc(-c3ccc(C(=N)N)o3)o2)c1`, for which the GI50 is 2.34 µM and the TGI stood at 5.25 µM.

Turning to `C[C@]12CC[C@H](O)CC1=CC[C@@H]1[C@@H]2CC[C@]2(C)C(c3cccnc3)=CC[C@@H]12`, the GI50 is more than 100 µM and the TGI was more than 100 µM.

Turning to `Cc1ccc2c(c1)C(=O)/C(=C/c1ncc([N+](=O)[O-])n1C)O2`, the GI50 was 2.7 µM and the TGI is more than 27 µM.

`CC1OC(n2cc(F)c(=O)[nH]c2=O)CCC1O` (configuration not stated): the TGI is more than 100 µM.

Turning to `O=C(NCCOCCOCCNc1cccc2c1C(=O)N(C1CCCNC1=O)C2=O)c1cc2c(o1)C(=O)c1ccccc1C2=O` (configuration not stated), the GI50 is 1.77 µM and the TGI was found to be 3.19 µM.

As to `CC1CCC2(C(=O)O)CCC3(C)C(=CCC4C5(C)CC(O)C(O)C(C)(CO)C5C(O)CC43C)C2C1C` (configuration not stated), the TGI was more than 100 µM.

The subject of another assay is T-47D breast. Put plainly: NCI-60 cell line screen, 48 h.
`Cc1nc2cccc([N+](=O)[O-])c2c(NCCCN(C)C)c1C` gave a TGI of more than 100 µM.

Take `NCC(=O)NS(=O)(=O)OC[C@H]1O[C@@H](n2cnc3c(N)ncnc32)[C@H](O)[C@@H]1O`: the GI50 was 2.32 µM and the TGI amounted to 9.21 µM.

For the molecule `Cc1c(C(=O)N/N=C/c2ccc(Cl)cc2)nnn1-c1ccnc2c(C(F)(F)F)cccc12`, the GI50 is 7.59 µM and the TGI was 28.9 µM.

Turning to `Cc1nn(CN2CCN(C)CC2)c(=S)n1/N=C/c1cccc2ccccc12`, the GI50 was 17.6 µM and the TGI worked out at 48.2 µM.

Turning to `N#C/C(=C1C=C/C(=N/O)C(Br)=C/1)c1ccccc1`, the GI50 was 2.19 µM and the TGI turned out to be 20.6 µM.

On to `CN(C)CCNc1cc(-c2ccccc2)nc2ccccc12`, for which the GI50 is 8.79 µM and the TGI stood at 37.2 µM.

Take `COc1cccc(/C=N/NC(=O)c2ccccc2Nc2ccnc(C(F)(F)F)c2)c1O`: the GI50 is 0.498 µM and the TGI amounted to 38.8 µM.

Regarding `CN1CCN(Cc2ccc(NC(=O)c3cncc(C#Cc4cnc(N)c5ccc(C#N)cc45)c3)cc2C(F)(F)F)CC1`, the GI50 was 0.247 µM and the TGI stood at 2.03 µM.

`CCOC(=O)CCc1cc(=O)oc2cc(O)cc(O)c12` registered a TGI of more than 100 µM.

With `COC(=O)c1cc2c3ccccc3[nH]c2c2ncccc12`, the GI50 was 3.12 µM and the TGI is more than 100 µM.

As to `CNC(=O)OCc1c(COC(=O)NC)c(-c2ccc(Cl)c(Cl)c2)n2c1SCC2`, the TGI was 57.2 µM.

For the molecule `COc1cc(OC)cc(-c2ccc(-c3ccc(C(=N)N)o3)o2)c1`, the GI50 was 2.08 µM and the TGI amounted to 5.04 µM.

`C[C@]12CC[C@H](O)CC1=CC[C@@H]1[C@@H]2CC[C@]2(C)C(c3cccnc3)=CC[C@@H]12`: the GI50 was more than 100 µM and the TGI is more than 100 µM.

In the case of `Cc1ccc2c(c1)C(=O)/C(=C/c1ncc([N+](=O)[O-])n1C)O2`, the GI50 was 20.4 µM and the TGI stood at 76.5 µM.

Molecule `CC1OC(n2cc(F)c(=O)[nH]c2=O)CCC1O` (configuration not stated) had a TGI of more than 100 µM.

For `O=C(NCCOCCOCCNc1cccc2c1C(=O)N(C1CCCNC1=O)C2=O)c1cc2c(o1)C(=O)c1ccccc1C2=O` (configuration not stated), the GI50 is 2.53 µM and the TGI is 8.81 µM.

Take `CC1CCC2(C(=O)O)CCC3(C)C(=CCC4C5(C)CC(O)C(O)C(C)(CO)C5C(O)CC43C)C2C1C` (configuration not stated): the TGI is more than 84.7 µM.

The record behind these values is PubChem BioAssay (NCI).
